# Target: T1, horseradish peroxidase (HRP) (Armoracia rusticana, UniProt P00433)
# T1 sequence (P00433 31-338): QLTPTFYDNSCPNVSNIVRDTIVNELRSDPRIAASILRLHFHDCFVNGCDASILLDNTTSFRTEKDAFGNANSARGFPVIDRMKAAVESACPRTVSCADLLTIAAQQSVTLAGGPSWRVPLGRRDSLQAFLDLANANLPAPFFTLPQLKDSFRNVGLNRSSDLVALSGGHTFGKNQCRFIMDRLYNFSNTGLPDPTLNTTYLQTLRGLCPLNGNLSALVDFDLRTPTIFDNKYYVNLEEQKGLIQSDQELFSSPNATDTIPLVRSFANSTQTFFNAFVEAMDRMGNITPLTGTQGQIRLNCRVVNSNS
# Test: coupled GOx/HRP cascade, Resorufin formation in plate reader
# Assay type: biochemical
# Details: 200 μM Amplex Red; H2O2 generated by GOx from glucose; DNA-functionalized enzyme
compound,measurement,value
CC(=O)N1c2ccc(O)cc2Oc2cc(O)ccc21 [Amplex Red],"coupled GOx/HRP cascade, Resorufin formation in plate reader",Amplex Red → Resorufin catalyzed by HRP

# Source: paper PMC8889550 (JACS Au, 2022)
